Target: T1, airway epithelial sodium currents (epithelial sodium channel, ENaC) (Canis lupus familiaris, UniProt A0A8I3MKE6+A0A8I3Q679+Q95165)
T1 construct: endogenous in cells; host or cells: primary canine airway epithelial cells cultured at air-liquid interface, mounted in Ussing chambers
T1 sequence (A0A8I3Q679 1-649): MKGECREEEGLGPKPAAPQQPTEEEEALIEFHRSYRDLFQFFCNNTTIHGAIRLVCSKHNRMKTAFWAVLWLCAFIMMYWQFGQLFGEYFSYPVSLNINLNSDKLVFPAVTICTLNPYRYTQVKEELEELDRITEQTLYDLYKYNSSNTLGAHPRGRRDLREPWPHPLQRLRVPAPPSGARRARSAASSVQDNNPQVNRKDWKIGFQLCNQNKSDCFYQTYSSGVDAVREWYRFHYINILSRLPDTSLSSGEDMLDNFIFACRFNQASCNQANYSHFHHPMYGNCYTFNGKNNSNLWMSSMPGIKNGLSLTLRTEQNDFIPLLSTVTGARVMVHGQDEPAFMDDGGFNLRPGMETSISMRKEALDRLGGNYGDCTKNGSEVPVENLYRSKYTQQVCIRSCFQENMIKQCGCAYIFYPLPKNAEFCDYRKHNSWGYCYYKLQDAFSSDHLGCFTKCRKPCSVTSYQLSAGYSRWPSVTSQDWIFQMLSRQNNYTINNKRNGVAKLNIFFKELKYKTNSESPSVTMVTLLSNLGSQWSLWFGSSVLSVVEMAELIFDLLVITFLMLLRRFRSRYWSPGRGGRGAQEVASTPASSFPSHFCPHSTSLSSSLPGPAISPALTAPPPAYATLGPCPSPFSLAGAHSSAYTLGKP
T1 sequence (Q95165 1-641): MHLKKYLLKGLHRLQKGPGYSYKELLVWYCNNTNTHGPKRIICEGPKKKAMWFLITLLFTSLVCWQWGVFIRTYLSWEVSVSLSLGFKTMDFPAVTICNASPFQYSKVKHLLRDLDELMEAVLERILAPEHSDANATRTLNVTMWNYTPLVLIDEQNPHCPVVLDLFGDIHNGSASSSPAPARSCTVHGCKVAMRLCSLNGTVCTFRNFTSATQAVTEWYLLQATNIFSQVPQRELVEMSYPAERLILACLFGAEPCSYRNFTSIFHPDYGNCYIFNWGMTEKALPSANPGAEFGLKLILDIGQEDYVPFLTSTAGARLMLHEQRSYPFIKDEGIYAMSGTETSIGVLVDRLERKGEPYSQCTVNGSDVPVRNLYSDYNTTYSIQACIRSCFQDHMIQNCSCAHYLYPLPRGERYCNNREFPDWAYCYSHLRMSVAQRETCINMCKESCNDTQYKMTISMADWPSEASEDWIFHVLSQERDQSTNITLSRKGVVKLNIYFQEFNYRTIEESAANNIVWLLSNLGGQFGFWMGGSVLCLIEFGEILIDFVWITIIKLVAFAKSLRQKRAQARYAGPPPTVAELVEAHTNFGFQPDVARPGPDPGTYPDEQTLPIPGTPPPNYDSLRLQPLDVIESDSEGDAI
T1 sequence (A0A8I3MKE6 1-646): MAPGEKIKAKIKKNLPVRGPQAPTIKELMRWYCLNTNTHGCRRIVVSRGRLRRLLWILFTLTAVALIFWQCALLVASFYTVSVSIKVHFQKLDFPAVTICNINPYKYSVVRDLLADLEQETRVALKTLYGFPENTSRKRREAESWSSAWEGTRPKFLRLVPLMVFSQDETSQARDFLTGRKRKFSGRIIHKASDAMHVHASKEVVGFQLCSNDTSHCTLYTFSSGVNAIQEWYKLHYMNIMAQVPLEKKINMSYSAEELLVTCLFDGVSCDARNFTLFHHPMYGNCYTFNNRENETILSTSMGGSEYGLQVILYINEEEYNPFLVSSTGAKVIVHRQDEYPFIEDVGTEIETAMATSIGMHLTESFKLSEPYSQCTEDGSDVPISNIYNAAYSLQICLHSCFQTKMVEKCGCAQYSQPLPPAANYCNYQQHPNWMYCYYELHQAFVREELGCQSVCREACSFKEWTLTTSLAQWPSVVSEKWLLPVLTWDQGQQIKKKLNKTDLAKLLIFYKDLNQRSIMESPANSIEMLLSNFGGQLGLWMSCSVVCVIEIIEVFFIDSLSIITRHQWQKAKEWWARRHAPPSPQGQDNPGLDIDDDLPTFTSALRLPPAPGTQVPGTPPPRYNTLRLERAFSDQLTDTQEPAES
Experiment: In vitro measure of sodium channel blocking activity (short circuit current, Ussing chambers)
Format: cell-based
Conditions: freshly excised cells from canine airways; lumenal drug addition; short circuit current (ISC)
Experimental: One assay used to assess mechanism of action and/or potency of the compounds of the present invention involves the determination of lumenal drug inhibition of airway epithelial sodium currents measured under short circuit current (ISC) using airway epithelial monolayers mounted in Ussing chambers. Cells obtained from freshly excised human, dog, sheep or rodent airways are seeded onto porous 0.4 micron Snapwell™ Inserts (CoStar), cultured at air-liquid interface (ALI) conditions in hormonally defined media, and assayed for sodium transport activity (ISC) while bathed in Krebs Bicarbonate Ringer (KBR) in Using chambers. All test drug additions are to the lumenal bath with half-log dose addition protocols (from 1×10^−11 M to 3×10^−5 M), and the cumulative change in ISC (inhibition) recorded. […] After the maximal concentration (5×10^−5 M) is administered, the lumenal bath is exchanged three times with fresh drug-free KBR solution, and the resultant ISC measured after each wash for approximately 5 minutes in duration. […] All data from the voltage clamps are collected via a computer interface and analyzed off-line. Dose-effect relationships for all compounds are considered and analyzed by the Prism 3.0 program. IC50 values, maximal effective concentrations, and reversibility are calculated and compared to amiloride and benzamil as positive controls. […]

IC50: 13.2 nM
Structure (SMILES): N=C(N)NCCCC[C@H](NC[C@H](O)[C@@H](O)[C@H](O)[C@H](O)CO)C(=O)NCCOc1ccc(CCCCNC(=N)NC(=O)c2nc(Cl)c(N)nc2N)cc1 [Compound I, 3,5-diamino-6-chloro-N—(N-(4-(4-(2-((S)-6-guanidino-2-((2S,3R,4R,5R)-2,3,4,5,6-pentahydroxyhexylamino)hexanamido)ethoxy)phenyl)butyl)carbamimidoyl)pyrazine-2-carboxamide]
